Measurements as given in ChEMBL document CHEMBL6096738, “Optimization of Single Relaxin B-Chain Peptide Leads to the Identification of R2R01, a Potent, Long-Acting RXFP1 Agonist for Cardiovascular and Renal Diseases” (J Med Chem, 2025).
Starred links: 1 amine or outer side, 2 acyl side, 3 side chain; linkers in the order of their positions; H or OH if unused. Non-standard residues stand in square brackets, D forms with d. Residues, ends and D or L forms follow the SMILES beside them. Groups on a side chain read outwards from the residue. *: point of attachment. PEG12 = NCCOCCOCCOCCOCCOCCOCCOCCOCCOCCOCCOCCOCCC(=O)O; γGlu = O=C(O)[C@H](CCC(=O)[*:2])N[*:1]; Stearoyl = CCCCCCCCCCCCCCCCCC(=O)*; Palmitoyl = CCCCCCCCCCCCCCCC(=O)*; Nle = CCCC[C@H](N)C(=O)O; AEEA = NCCOCCOCC(=O)O; Aib = CC(C)(N)C(=O)O

Assays:
[1] = Induction of immune response in human CD4+ T cells assessed as increase in auto reactive T cells at 3 uM preincubated with monocyte-derived immature dendritic cells followed by T cell addition and further stimulated on day 7 and 14 with autologous dendritic cells and measured after 5 days post last stimulation by IFNgamma-Elispot analysis; type: toxicity, cell-based; details: 120 h
[2] = Drug metabolism in male Sprague-Dawley rat assessed as fatty acid chain oxidation mediated M+16 metabolite formation by measuring metabolite to parent compound AUC ratio at 3 mg/kg, sc measured after 198 hrs by LC-HRMS analysis; type: ADME, organism-based; details: in vivo
[3] = Half-life in male Beagle dog at 1 mg/kg, iv measured after 198 hrs by LC-HRMS analysis; type: ADME, organism-based, Canis lupus familiaris; details: in vivo
[4] = biological target: T1, Relaxin receptor 1 (Homo sapiens) (UniProt Q9HBX9); assay: Agonist activity at human RXFP1 expressed in 2%HSA treated human OVCAR-5 cells assessed as intracellular cAMP accumulation by measuring maximal efficacy incubated for 30 mins with 2% HSA pretreated compound by HTRF assay relative to control; type: functional, cell-based; details: filed as agonist
T1 sequence (whole entry): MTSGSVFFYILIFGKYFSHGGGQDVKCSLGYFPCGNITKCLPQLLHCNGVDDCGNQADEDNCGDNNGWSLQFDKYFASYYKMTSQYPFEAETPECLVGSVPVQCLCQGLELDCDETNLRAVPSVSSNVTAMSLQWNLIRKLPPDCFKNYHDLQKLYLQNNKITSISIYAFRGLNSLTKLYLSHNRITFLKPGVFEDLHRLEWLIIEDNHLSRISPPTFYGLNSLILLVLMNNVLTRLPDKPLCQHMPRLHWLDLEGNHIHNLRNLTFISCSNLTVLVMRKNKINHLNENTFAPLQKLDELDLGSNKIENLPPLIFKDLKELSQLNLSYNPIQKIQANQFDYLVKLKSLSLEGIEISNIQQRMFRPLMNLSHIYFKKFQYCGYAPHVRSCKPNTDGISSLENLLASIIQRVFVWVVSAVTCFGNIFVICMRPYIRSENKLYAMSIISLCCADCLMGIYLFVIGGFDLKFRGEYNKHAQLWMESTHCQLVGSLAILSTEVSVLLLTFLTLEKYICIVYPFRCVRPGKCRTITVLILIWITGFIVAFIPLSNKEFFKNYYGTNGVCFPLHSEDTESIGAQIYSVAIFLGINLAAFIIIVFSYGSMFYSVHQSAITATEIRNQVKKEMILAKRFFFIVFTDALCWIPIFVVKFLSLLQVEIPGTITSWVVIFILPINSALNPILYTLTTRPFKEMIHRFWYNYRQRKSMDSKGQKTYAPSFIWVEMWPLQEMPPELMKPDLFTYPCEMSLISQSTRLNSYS

[5] = Half-life in male Sprague-Dawley rat at 1 mg/kg, iv measured after 198 hrs by LC-HRMS analysis; type: ADME, organism-based; details: in vivo
[6] = biological target: T1, Relaxin receptor 1 (Homo sapiens); assay: Agonist activity at human RXFP1 expressed in human OVCAR-5 cells assessed as intracellular cAMP accumulation by measuring maximal efficacy incubated for 30 mins by HTRF assay relative to control; type: functional, cell-based; details: filed as agonist
[7] = Drug metabolism in male Beagle dog assessed as fatty acid chain oxidation mediated M+16 metabolite formation by measuring metabolite to parent compound AUC ratio at 1 mg/kg, iv measured after 198 hrs by LC-HRMS analysis; type: ADME, organism-based, Canis lupus familiaris; details: in vivo
[8] = Induction of mast cell degranulation in human LAD2 cells assessed as beta-hexosaminidase release by measuring maximal efficacy of 4-methylumbelliferyl N-acetyl-beta-D-glucosaminide hydrolysis at 33 uM incubated for 30 mins by plate reader analysis relative to control; type: toxicity, cell-based; details: probe 4-methylumbelliferyl N-acetyl-beta-D-glucosaminide
[9] = Half-life in female Gottingen pig at 1 mg/kg, iv measured after 198 hrs by LC-HRMS analysis; type: ADME, organism-based, Sus scrofa; details: in vivo
Relaxin receptor 1 [10] = biological target: T2, Relaxin receptor 1 (Homo sapiens, UniProt Q9HBX9); assay: Agonist activity at human RXFP1 expressed in 2%HSA treated human OVCAR-5 cells assessed as intracellular cAMP accumulation incubated for 30 mins with 2% HSA pretreated compound by HTRF assay; type: functional, cell-based
T2 sequence (Q9HBX9 whole entry): T1 sequence (whole entry)

Relaxin receptor 1 [11] = biological target: T2, Relaxin receptor 1; assay: Agonist activity at human RXFP1 expressed in human OVCAR-5 cells assessed as intracellular cAMP accumulation incubated for 30 mins by HTRF assay; type: functional, cell-based
[12] = Drug metabolism in female Gottingen pig assessed as fatty acid chain oxidation mediated M+16 metabolite formation by measuring metabolite to parent compound AUC ratio at 1 mg/kg, iv measured after 198 hrs by LC-HRMS analysis; type: ADME, organism-based, Sus scrofa; details: in vivo
[13] = Induction of mast cell degranulation in human LAD2 cells assessed as beta-hexosaminidase release by measuring 4-methylumbelliferyl N-acetyl-beta-D-glucosaminide hydrolysis incubated for 30 mins by plate reader analysis; type: toxicity, cell-based; details: probe 4-methylumbelliferyl N-acetyl-beta-D-glucosaminide

Row | Compound | Activity [1] | Ratio AUC [2] | half-life [3] | Emax [4] | half-life [5] | Emax [6] | Ratio AUC [7] | Emax at 0.5 h, 33 µM [8] | half-life [9] | EC50 (Relaxin receptor 1 [10]) | EC50 (Relaxin receptor 1 [11]) | Ratio AUC [12] | EC50 at 30 min [13]
1 | CCCC[C@H](NC(=O)CNC(=O)[C@H](CCC(=O)O)NC(=O)C(C)(C)NC(=O)C(C)(C)NC(=O)[C@@H](NC(=O)[C@H](CCCCNC(C)=O)NC(=O)[C@H](C)NC(=O)[C@H](CCCNC(=N)N)NC(=O)[C@@H](NC(=O)[C@H](CCCCN)NC(=O)[C@H](CCC(=O)O)NC(=O)[C@H](CCCNC(=N)N)NC(=O)CNC(=O)[C@H](CCC(=O)O)NC(=O)[C@H](CC(C)C)NC(C)=O)C(C)C)[C@@H](C)CC)C(=O)N[C@@H](CO)C(=O)N[C@H](C(=O)N[C@@H](Cc1c[nH]c2ccccc12)C(=O)N[C@@H](CO)C(=O)NC(C)(C)C(=O)N[C@@H](CCCNC(=N)N)C(=O)N[C@@H](CCCCN)C(=O)N[C@@H](CCCCNC(C)=O)C(N)=O)[C@@H](C)O (Ac-LEGREKVRAK(Ac)I[Aib][Aib]EG[Nle]STWS[Aib]RKK(Ac)-NH2) | Non-toxic | – | – | – | – | – | – | – | – | – | – | – | –
2 | CCCCCCCCCCCCCCCC(=O)N[C@@H](CCC(=O)N[C@@H](CCC(=O)N[C@@H](CCC(=O)NCCOCCOCC(=O)NCCOCCOCC(=O)NCCOCCOCC(=O)NCCCC[C@H](NC(=O)[C@H](CCCCNC(C)=O)NC(=O)[C@H](CCCCN)NC(=O)[C@H](CCCNC(=N)N)NC(=O)C(C)(C)NC(=O)[C@H](CO)NC(=O)[C@H](Cc1c[nH]c2ccccc12)NC(=O)[C@@H](NC(=O)[C@H](CO)NC(=O)[C@H](CCCC)NC(=O)CNC(=O)[C@H](CCC(=O)O)NC(=O)C(C)(C)NC(=O)C(C)(C)NC(=O)[C@@H](NC(=O)[C@H](CCCCNC(C)=O)NC(=O)[C@H](C)NC(=O)[C@H](CCCNC(=N)N)NC(=O)[C@@H](NC(=O)[C@H](CCCCN)NC(=O)[C@H](CCC(=O)O)NC(=O)[C@H](CCCNC(=N)N)NC(=O)CNC(=O)[C@H](CCC(=O)O)NC(=O)[C@H](CC(C)C)NC(C)=O)C(C)C)[C@@H](C)CC)[C@@H](C)O)C(N)=O)C(=O)O)C(=O)O)C(=O)O (Ac-LEGREKVRAK(Ac)I[Aib][Aib]EG[Nle]STWS[Aib]RKK(Ac)K([AEEA-AEEA-AEEA-γGlu-γGlu-γGlu-Palmitoyl])-NH2) | – | 0.025 | 4.4 h | 96% | 5.7 h | 80% | 0.99 | 67.2% | 12.9 h | 87 nM | 1 nM | 0.7 | 3900 nM
3 | CCCCCCCCCCCCCCCCCC(=O)N[C@@H](CCC(=O)N[C@@H](CCC(=O)N[C@@H](CCC(=O)NCCCC[C@H](NC(=O)CCOCCOCCOCCOCCOCCOCCOCCOCCOCCOCCOCCOCCNC(=O)[C@H](CCCCNC(C)=O)NC(=O)[C@H](CCCCN)NC(=O)[C@H](CCCNC(=N)N)NC(=O)C(C)(C)NC(=O)[C@H](CO)NC(=O)[C@H](Cc1c[nH]c2ccccc12)NC(=O)[C@@H](NC(=O)[C@H](CO)NC(=O)[C@H](CCCC)NC(=O)CNC(=O)[C@H](CCC(=O)O)NC(=O)C(C)(C)NC(=O)C(C)(C)NC(=O)[C@@H](NC(=O)[C@H](CCCCNC(C)=O)NC(=O)[C@H](C)NC(=O)[C@H](CCCNC(=N)N)NC(=O)[C@@H](NC(=O)[C@H](CCCCN)NC(=O)[C@H](CCC(=O)O)NC(=O)[C@H](CCCNC(=N)N)NC(=O)CNC(=O)[C@H](CCC(=O)O)NC(=O)[C@H](CC(C)C)NC(C)=O)C(C)C)[C@@H](C)CC)[C@@H](C)O)C(N)=O)C(=O)O)C(=O)O)C(=O)O (Ac-LEGREKVRAK(Ac)I[Aib][Aib]EG[Nle]STWS[Aib]RKK(Ac)[PEG12]K([γGlu-γGlu-γGlu-Stearoyl])-NH2) | Non-toxic | – | – | 84% | 4.3 h | 95% | – | – | – | 9 nM | 0.6 nM | – | –
